Experimental findings from EP0022969A1, “Antimycotic compositions containing azolylalkenols and their preparation” (BAYER AG, priority 1979, dated 1981) are described below.

This assay concerns Trichophyton mentagrophytes. Put plainly: Antimicrobial in vivo activity (local) in experimental guinea pig trichophytosis. Details: species or system Meerschweinchen der Rasse Pirbright-white. The following applies: guinea pigs infected with Trichophyton mentagrophytes; 1% solution in DMSO:glycerol 1:4, local, once daily from day 3 p.i.; meaning only slight redness and isolated scales, or no signs of infection. The source says:
Weiße Meerschweinchen der Rasse Pirbright-white wurden auf dem geschorenen, nicht skarifizierten Rücken mit einer Mikro- und Makrokonidien-Suspension von Trichophyton mentagrophytes infiziert.
Die infizierten Tiere wurden, beginnend mit dem 3.Tag p.i., 1 x täglich mit 1%-iger Lösung der erfindungsgemäßen Präparate (in Dimethylsulfoxid:Glycerin=1:4) lokal behandelt.
Bei unbehandelten Tieren entwickelt sich innerhalb von 12 Tagen p.i. das typische Bild einer Dermatophytose mit Rötung, Schuppung und Haarausfall bis zum totalen Integument-Defekt an der Infektionsstelle.
On to `CC(C)(C)C(O)C(=Cn1ccnc1)Oc1ccc(F)cc1` (stereo not drawn) [Beispiel 1], for which the “Wirkung (Infektionszeichen)” value is reported as “gute bis sehr gute Wirkung”.

Consider `CC(C)(C)C(O)C(=Cn1ccnc1)Oc1ccccc1Cl` (stereo not drawn) [Beispiel 5], for which the “Wirkung (Infektionszeichen)” value is listed as “gute bis sehr gute Wirkung”. On to `CC(C)(C)C(O)C(=Cn1ccnc1)Oc1ccc(F)cc1Cl` (stereo not drawn) [Beispiel 9], for which the “Wirkung (Infektionszeichen)” value was “gute bis sehr gute Wirkung”.
